Laboratory results: patent publication US9242981B2, “Fused pyrazole derivatives as novel ERK inhibitors” (Merck Sharp & Dohme Corp., priority 2010, dated 2016)

Biological target: Mouse ERK2 protein (Mus musculus (Mouse), UniProt P63085)
Test: Coupled MEK1/ERK2 IMAP assay or Active ERK2 IMAP assay
Type: biochemical
Details: Table 1, class symbols, 30 μM ATP
Procedure: 14 μl of kinase buffer (10 mM Tris.HCl pH 7.2, 10 mM MgCl2, 0.01% Tween-20, 1 mM DTT) containing 0.4 ng unphosphorylated Mouse ERK2 protein is added to each well of a black 384-well assay plate. […] DMSO concentration during initial incubation is 6.7%. […] DMSO concentration during ERK activation was 4%. After one hour, reactions are terminated by addition of 60 μl IMAP detections beads in binding buffer (Molecular Devices). Binding is allowed to equilibrate for 30 minutes before reading the plate on an LJL Analyst Fluorescence Polarization plate reader.
Activated ERK2 activity was also determined in the IMAP assay format using the procedure outlined above. […] Reactions proceeded for 30 minutes before termination by addition of […] IMAP detection beads in binding buffer. Plates were read as above after 30 minute binding equilibration.

Mouse ERK2 protein, sequence (P63085 whole entry): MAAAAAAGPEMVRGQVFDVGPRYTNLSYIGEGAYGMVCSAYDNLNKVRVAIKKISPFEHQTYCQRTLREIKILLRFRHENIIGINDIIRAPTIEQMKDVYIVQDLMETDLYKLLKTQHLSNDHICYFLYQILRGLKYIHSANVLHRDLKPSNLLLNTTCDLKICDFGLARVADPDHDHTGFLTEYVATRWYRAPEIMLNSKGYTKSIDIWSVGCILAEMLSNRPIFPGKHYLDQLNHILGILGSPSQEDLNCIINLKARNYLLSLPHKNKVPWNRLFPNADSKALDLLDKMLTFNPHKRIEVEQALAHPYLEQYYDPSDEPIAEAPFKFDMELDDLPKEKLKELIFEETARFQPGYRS

In the case of `Nc1nc(CC(=O)N2CCc3[nH]nc(-c4ccncc4)c3C2)cs1` [Compound 5, 5-[(2-amino-4-thiazolyl)-acetyl]-4,5,6,7-tetrahydro-3-(4-pyridinyl)-1H-pyrazolo[4,3-c]pyridine], the IC50 is reported as 1000 to 100000 nM.

`Cn1cnc(CC(=O)N2CCc3[nH]nc(-c4ccncc4)c3C2)c1` [Compound 6, 4,5,6,7-tetrahydro-5-[(1-methyl-1H-imidazol-4-yl)acetyl]-3-(4-pyridinyl)-1H-pyrazolo[4,3-c]pyridine] gave an IC50 of 1000 to 100000 nM.

With `O=C(Cc1cccs1)N1CCc2[nH]nc(-c3ccncc3)c2C1` [Compound 7, 4,5,6,7-tetrahydro-3-(4-pyridinyl)-5-(2-thienylacetyl)-1H-pyrazolo[4,3-c]pyridine] the IC50 was 1000 to 100000 nM.

In the case of `O=C(Cc1ccccc1Cl)N1CCc2[nH]nc(-c3ccncc3)c2C1` [Compound 8, 5-[(2-chlorophenyl)acetyl]-4,5,6,7-tetrahydro-3-(4-pyridinyl)-1H-pyrazolo[4,3-c]pyridine], the IC50 is reported as 101 to 1000 nM.

`O=C(Cc1cccc(Br)c1)N1CCc2[nH]nc(-c3ccncc3)c2C1` [Compound 9, 5-[(3-bromophenyl)acetyl]-4,5,6,7-tetrahydro-3-(4-pyridinyl)-1H-pyrazolo[4,3-c]pyridine] gave an IC50 of 101 to 1000 nM.

With `COc1ccccc1CC(=O)N1CCc2[nH]nc(-c3ccncc3)c2C1` [Compound 10, 4,5,6,7-tetrahydro-5-[(2-methoxyphenyl)acetyl]-3-(4-pyridinyl)-1H-pyrazolo[4,3-c]pyridine] the IC50 was 1000 to 100000 nM.

Molecule `Cc1nc(CC(=O)N2CCc3[nH]nc(-c4ccncc4)c3C2)c(C)s1` [Compound 11, 5-[(2,5-dimethyl-4-thiazolyl)acetyl]-4,5,6,7-tetrahydro-3-(4-pyridinyl)-1H-pyrazolo[4,3-c]pyridine] has an IC50 of 1000 to 100000 nM.

`CC1(C(=O)Nc2ccccc2OCc2cccnc2)CCc2[nH]nc(-c3ccncc3)c2C1` (stereo not shown) [Compound 14, 4,5,6,7-tetrahydro-5-methyl-3-(4-pyridinyl)-N-[2-(3-pyridinylmethoxy)phenyl]-1H-indazole-5-carboxamide] was tested, and the IC50 was 1000 to 100000 nM.

`COc1ccccc1NC(=O)C1(C)CCc2[nH]nc(-c3ccncc3)c2C1` (stereo not shown) [Compound 15, 4,5,6,7-tetrahydro-N-(2-methoxyphenyl)-5-methyl-3-(4-pyridinyl)-1H-indazole-5-carboxamide] gave an IC50 of 1000 to 100000 nM.

Work on `CC(C)C(Cn1ccnc1)NC(=O)C1(C)CCc2[nH]nc(-c3ccncc3)c2C1` (stereo not shown) [Compound 16, 4,5,6,7-tetrahydro-N-[1-(1H-imidazoL-1-ylmethyl)-2-methylpropyl]-5-methyl-3-(4-pyridinyl)-1H-indazole-5-carboxamide] yielded an IC50 of 1000 to 100000 nM.

Molecule `CC1(C(=O)Nc2ccccc2OC(F)(F)F)CCc2[nH]nc(-c3ccncc3)c2C1` (stereo not shown) [Compound 17, 4,5,6,7-tetrahydro-5-methyl-3-(4-pyridinyl)-N-[2-(trifluoromethoxy)phenyl]-1H-indazole-5-carboxamide] has an IC50 of 1000 to 100000 nM.

Molecule `COc1ncccc1NC(=O)C1(C)CCc2[nH]nc(-c3ccncc3)c2C1` (stereo not shown) [Compound 18, 4,5,6,7-tetrahydro-N-(2-methoxy-3-pyridinyl)-5-methyl-3-(4-pyridinyl)-1H-indazole-5-carboxamide] has an IC50 of 1000 to 100000 nM.

Work on `CN(C)CCOc1ccccc1NC(=O)C1(C)CCc2[nH]nc(-c3ccncc3)c2C1` (stereo not shown) [Compound 19, N-[2-[2-(dimethylamino)-ethoxy]phenyl]-4,5,6,7-tetrahydro-5-methyl-3-(4-pyridinyl)-1H-indazole-5-carboxamide] yielded an IC50 of 1000 to 100000 nM.

Molecule `CC1(C(=O)Nc2ccccc2OCC2CCCO2)CCc2[nH]nc(-c3ccncc3)c2C1` (stereo not shown) [Compound 20, 4,5,6,7-tetrahydro-5-methyl-3-(4-pyridinyl]-N-[2 [(tetrahydro-2-furanyl)-methoxy]phenyl]-1H-indazole-5-carboxamide] has an IC50 of 1000 to 100000 nM.

In the case of `CC1(C(=O)Nc2ccccc2OCCN2CCCCC2)CCc2[nH]nc(-c3ccncc3)c2C1` (stereo not shown) [Compound 21, 4,5,6,7-tetrahydro-5-methyl-N-[2-[2-(1-piperidinyl)ethoxy]-phenyl]-3-(4-pyridinyl)-1H-indazole-5-carboxamide], the IC50 is reported as 1000 to 100000 nM.

In the case of `CN(C)c1ccc(CC(=O)N2CCc3[nH]nc(-c4ccncc4)c3C2)cc1` [Compound 22, 5[[4-(dimethylamino)-phenyl]acetyl]-4,5,6,7-tetrahydro-3-(4-pyridinyl)-1H-pyrazolo[4,3-c]pyridine], the IC50 is reported as 101 to 1000 nM.

Molecule `COc1ccc(OC)c(CC(=O)N2CCc3[nH]nc(-c4ccncc4)c3C2)c1` [Compound 23, 5-[(2,5-dimethoxyphenyl)-acetyl]-4,5,6,7-tetrahydro-3-(4-pyridinyl)-1H-pyrazolo[4,3-c]pyridine] has an IC50 of 101 to 1000 nM.

`O=C(Cc1ccccc1F)N1CCc2[nH]nc(-c3ccncc3)c2C1` [Compound 24, 5-[(2-fluorophenyl)acetyl]-4,5,6,7-tetrahydro-3-(4-pyridinyl)-1H-pyrazolo[4,3-c]pyridine] was tested, and the IC50 was 101 to 1000 nM.

Work on `O=C(Cc1cccnc1)N1CCc2[nH]nc(-c3ccncc3)c2C1` [Compound 25, 4,5,6,7-tetrahydro-3-(4-pyridinyl)-5-(3-pyridinylacetyl)-1H-pyrazolo[4,3-c]pyridine] yielded an IC50 of 101 to 1000 nM.

`O=C(Cc1ccccc1C(F)(F)F)N1CCc2[nH]nc(-c3ccncc3)c2C1` [Compound 26] gave an IC50 of 101 to 1000 nM.

In the case of `O=C(Cc1c(F)cccc1Cl)N1CCc2[nH]nc(-c3ccncc3)c2C1` [Compound 27, 5-[(2-chloro-6-fluorophenyl)acetyl]-4,5,6,7-tetrahydro-3-(4-pyridinyl)-1H-pyrazolo[4,3-c]pyridine], the IC50 is reported as 101 to 1000 nM.

In the case of `O=C(N1CCc2[nH]nc(-c3ccncc3)c2C1)C1(c2ccc(Cl)cc2Cl)CC1` [Compound 28, 5-[[1-(2,4-dichlorophenyl)-cylcopropyl]carbonyl]-4,5,6,7-tetrahydro-3-(4-pyridinyl)-1H-pyrazolo[4,3-c]pyridine], the IC50 is reported as 101 to 1000 nM.

`O=C(Cc1ccccc1Oc1ccccc1)N1CCc2[nH]nc(-c3ccncc3)c2C1` [Compound 29, 4,5,6,7-tetrahydro-5-[(2-phenoxyphenyl)acetyl]-3-(4-pyridinyl)-1H-pyrazol[4,3-c]pyridine] showed an IC50 of 101 to 1000 nM.

Work on `O=C(Cc1ccccn1)N1CCc2[nH]nc(-c3ccncc3)c2C1` [Compound 30, 4,5,6,7-tetrahydro-3-(4-pyridinyl)-5-(2-pyridinylacetyl)-1H-pyrazolo[4,3-c]pyridine] yielded an IC50 of 101 to 1000 nM.

In the case of `CS(=O)(=O)c1cccc(CC(=O)N2CCc3[nH]nc(-c4ccncc4)c3C2)c1` [Compound 31], the IC50 is reported as 101 to 1000 nM.

Work on `O=C(Cc1ccc(-c2ccccc2)cc1)N1CCc2[nH]nc(-c3ccncc3)c2C1` [Compound 32, 5-([1,1′-biphenyl]-4-ylacetyl)-4,5,6,7-tetrahydro-3-(4-pyridinyl)-1H-pyrazolo[4,3-c]pyridine] yielded an IC50 of 101 to 1000 nM.

`O=C(Cc1ccccc1-c1cccnc1)N1CCc2[nH]nc(-c3ccncc3)c2C1` [Compound 33, 4,5,6,7-tetrahydro-3-(4-pyridinyl)-5-[[2-(3-pyridinyl)phenyl]acetyl]-1H-pyrazolo[4,3-c]pyridine] gave an IC50 of 101 to 1000 nM.

Work on `O=C(C(CO)c1ccccc1)N1CCc2[nH]nc(-c3ccncc3)c2C1` (stereo not drawn) [Compound 38, 1,4,6,7-tetrahydro-gamma-oxo-beta-phenyl-3-(4-pyridinyl)-5H-pyrazolo[4,3-c]pyridine-5-propanol] yielded an IC50 of 1000 to 100000 nM.

Molecule `O=C(C1CCCc2ccccc21)N1CCc2[nH]nc(-c3ccncc3)c2C1` (stereo not shown) [Compound 39, 4,5,6,7-tetrahydro-3-(4-pyridinyl)-5-[(1,2,3,4-tetrahydro-1-naphthalenyl)carbonyl]-1H-pyrazolo[4,3-c]pyridine] has an IC50 of 1000 to 100000 nM.

In the case of `CC(C(=O)N1CCc2[nH]nc(-c3ccncc3)c2C1)c1ccccc1` (stereo not shown) [Compound 40, 4,5,6,7-tetrahydro-5-(1-oxo-2-phenylpropyl)-3-(4-pyridinyl)-1H-pyrazolo[4,3-c]pyridine], the IC50 is reported as 1000 to 100000 nM.

For `CC(C(=O)N1CCc2[nH]nc(-c3ccncc3)c2C1)c1ccccc1Cl` (stereo not shown) [Compound 41, 5-[2-(2-chlorophenyl)-1-oxopropyl]-4,5,6,7-tetrahydro-3-(4-pyridinyl)-1H-pyrazolo[4,3-c]pyridine], the IC50 was 1000 to 100000 nM.

In the case of `CCn1cc(Cl)c(NC(=O)N2CCc3[nH]nc(-c4ccncc4)c3C2)n1` [Compound 42, N-(4-chloro-1-ethyl-1H-pyrazol-3-yl)-1,4,6,7-tetrahydro-3-(4-pyridinyl)-5H-pyrazolo[4,3-c]pyridine-5-carboxamide], the IC50 is reported as 1000 to 100000 nM.

For `O=C(NC1CNCC(c2ccccc2)C1)N1CCc2[nH]nc(-c3ccncc3)c2C1` (stereo not shown) [Compound 47, 1,4,6,7-tetrahydro-N-(5-phenyl-3-piperidinyl)-3-(4-pyridinyl)-5H-pyrazolo[4,3-c]pyridine-5-carboxamide], the IC50 was under 20 nM.

`CN1CC(NC(=O)N2CCc3[nH]nc(-c4ccncc4)c3C2)CC(c2ccccc2)C1` (stereo not shown) [Compound 49, 1,4,6,7-tetrahydro-N-(1-methyl-5-phenyl-3-piperidinyl)-3-(4-pyridinyl)-5H-pyrazolo[4,3-c]pyridine-5-carboxamide] gave an IC50 of under 20 nM.

`O=C(CC1CCCNC1)N1CCc2[nH]nc(-c3ccncc3)c2C1` (stereo not shown) [Compound 51, 4,5,6,7-tetrahydro-5-(3-piperidinylacetyl)-3-(4-pyridinyl)-1H-pyrazolo[4,3-c]pyridine] was tested, and the IC50 was 101 to 1000 nM.

For `CC1CC(NC(=O)N2CCc3[nH]nc(-c4ccncc4)c3C2)CN(Cc2ccccc2F)C1` (stereo not shown) [Compound 52, N-[1-[(2-fluorophenyl)-methyl]-5-methyl-3-piperidinyl]-1,4,6,7-tetrahydro-3-(4-pyridinyl)-5H-pyrazolo[4,3-c]pyridine-5-carboxamide], the IC50 was 21 to 100 nM.

`O=C(N[C@@H]1CCCN(Cc2nccs2)C1)N1CCc2[nH]nc(-c3ccncc3)c2C1` [Compound 55, 1,4,6,7-tetrahydro-3-(4-pyridinyl)-N-[1-(2-thiazolylmethyl)-3(R)-piperidinyl]-5H-pyrazolo[4,3-c]pyridine-5-carboxamide] was tested, and the IC50 was 21 to 100 nM.
